The text below walks through data of patent US9533969B2, “Materials and method for inhibiting replication protein A and uses thereof” (Indiana University Research and Technology Corp., priority 2010, dated 2017).

“And” between values parts separate entries of the source, which are not always exact repeats. Equal values may be shown once.

One data set has as its system A549 NSCLC cell line. Briefly: Cytotoxicity in A549 cells. In kind it is cell-based. Particulars: data not shown.
The next data set concerns H460 NSCLC cells. In words: Cell cycle distribution by PI flow cytometry. The class given is cell-based, human. On the procedure: H460 cells were analyzed for apoptosis using an Annexin V-FITC/Propidium iodide (PI) Vybrant Apoptosis Assay Kit (Invitrogen), according to manufacturer's instructions. Cells were plated at a density of 1×10^4 cells per cm^2 and allowed to adhere for 24 hours and then treated with compound TDLR-505 for 48 hours. Following plating and treatment of H460 cells as described above, adherent and non-adherent cells were collected, processed, and analyzed on a BD FACScan flow cytometer. Data was analyzed using WinMDI software (http://facs.scripps.edu/software.html). Cell cycle analysis was performed by PI staining Briefly, cells were plated and treated with compound collected and then washed twice with PBS-EDTA supplemented with 1% BSA. Cells were fixed in 70% EtOH at −20° C. while vortexing followed by incubation on ice for 30 minutes. […] Cells were analyzed on a Becton Dickinson FACScan flow cytometer. Cells were gated and analyzed on a histogram with events plotted against the FL2-A parameter. Cell cycle distribution was analyzed using ModFit software. […] Cells were harvested and analyzed for cell cycle distribution as described above.
Referring now to FIG. 5A. H460 NSCLC cells were treated with 0 and 75 μM of compound TDLR-505 for 48 hours and then analyzed for cell cycle distribution using flow cytometry. […] Cells were then harvested and analyzed for cell cycle distribution using flow cytometry. […]

The test system of data set [1] is H460 NSCLC cell line. Briefly: Crystal violet staining cell viability assay. In kind it is cell-based. Particulars: Homo sapiens, NCI-H460; data not shown.
The subject of data set [2] is H460 NSCLC cell line. Briefly: Annexin V/PI flow cytometry, induction of cell death. The class given is cell-based, human. Particulars: Homo sapiens, NCI-H460; H460 cells, 48 hour exposure, annexinV/PI staining; read-out: IC50 (μM) Cellular. On the procedure: H460 cells were analyzed for apoptosis using an Annexin V-FITC/Propidium iodide (PI) Vybrant Apoptosis Assay Kit (Invitrogen), according to manufacturer's instructions. Cells were plated at a density of 1×10^4 cells per cm^2 and allowed to adhere for 24 hours and then treated with compound TDLR-505 for 48 hours. Following plating and treatment of H460 cells as described above, adherent and non-adherent cells were collected, processed, and analyzed on a BD FACScan flow cytometer. Data was analyzed using WinMDI software (http://facs.scripps.edu/software.html). Cell cycle analysis was performed by PI staining Briefly, cells were plated and treated with compound collected and then washed twice with PBS-EDTA supplemented with 1% BSA. Cells were fixed in 70% EtOH at −20° C. while vortexing followed by incubation on ice for 30 minutes. Cells were then collected and stained with PI solution (10 μg/mL PI and 25 μg/mL RNaseA in PBS-EDTA supplemented with 1% BSA). Cells were analyzed on a Becton Dickinson FACScan flow cytometer. Cells were gated and analyzed on a histogram with events plotted against the FL2-A parameter. Cell cycle distribution was analyzed using ModFit software. G2 arrest was induced by treatment with 0.8 μg/mL nocodazole for 12 hours (10). Cells were then washed with PBS and treated with either vehicle or compound TDLR-505 (100 μM). Cells were harvested and analyzed for cell cycle distribution as described above.
(§1) Referring now to TABLE 1, the in vitro IC50 was determined by EMSA analysis as described in FIG. 1A. The cellular IC50 value was determined by treating H460 cells with the indicated compounds and analyzing annexinV/PI staining as described in Methods. The in vitro and cellular data was analyzed using standard 4 parameter logistic-curve. The IC50 values and standard error of the fit were determined from this analysis.
Referring now to FIGS. 4A, 4B, 4C and 4D, the effects of compound TDRL-505 on induction of cell death and cell cycle progression in a H460 NSCLC cell line was measured. Briefly, H460 cells were treated with compound TDRL-505 for 48 hours and analyzed for cell viability via staining with AnnexinV/PI and presented as dot plots (see FIG. 3A). Referring now to FIG. 4B, the data from FIG. 4A was quantified and the percentage of Annexin-/PI-cells (lower left quadrant), indicating live cells, was calculated. The average±SD (N=4) are presented and the data was fit to a 4-parameter logistic curve.

The test system of data set [3] is peripheral blood mononuclear cells (PBMCs). In words: Cytotoxicity in freshly isolated PBMCs. The class given is cell-based. Particulars: non-cancerous cells, data not shown.
For another data set, the target named is Human RPA (Homo sapiens (Human), UniProt P27694). Briefly: EMSA of inhibition of RPA binding to ssDNA. Particulars: 25 nM RPA, 34-base DNA, 4 parameter logistic fit, read-out: IC50 (μM) In vitro. On the procedure: Small molecule inhibitors were obtained from ChemDiv and resuspended in DMSO. Compound TDLR-505 was independently synthesized and structure confirmed by mass spectrometry analysis. Human RPA was purified using an E. coli over expression system as previously described (7). EMSAs were performed in 20 μL reactions containing 25 nM RPA, 25 nM 5′[^32P]-labeled 34-base […] DNA as previously described (7). The final concentration of DMSO was 1%.
as §1
Referring now to FIGS. 2C, D and E, EMSA analysis of compound TDLR-505, briefly, increasing concentrations of compound TDRL-505 were pre-incubated with RPA and DNA binding activity was assessed via EMSA using a 34-base ssDNA substrate. Referring now to FIG. 2D, the average and standard deviation of each point are presented. The data was fit to a standard 4 parameter logistic curve with an N=4.

For another data set, the system named is H460 cells. Briefly: H460 NSCLC mouse xenograft model. The class given is in vivo, NOD/SCID mice. Particulars: oral dosing. From the text: Mice that had been implanted with a human NSCLC tumor cells were subjected to a regime of oral dosing. The tumors were allowed to grow to 100 mm3 after which treatment with TDRL-505 or vehicle was commenced.

Sequence of Human RPA (P27694 whole entry): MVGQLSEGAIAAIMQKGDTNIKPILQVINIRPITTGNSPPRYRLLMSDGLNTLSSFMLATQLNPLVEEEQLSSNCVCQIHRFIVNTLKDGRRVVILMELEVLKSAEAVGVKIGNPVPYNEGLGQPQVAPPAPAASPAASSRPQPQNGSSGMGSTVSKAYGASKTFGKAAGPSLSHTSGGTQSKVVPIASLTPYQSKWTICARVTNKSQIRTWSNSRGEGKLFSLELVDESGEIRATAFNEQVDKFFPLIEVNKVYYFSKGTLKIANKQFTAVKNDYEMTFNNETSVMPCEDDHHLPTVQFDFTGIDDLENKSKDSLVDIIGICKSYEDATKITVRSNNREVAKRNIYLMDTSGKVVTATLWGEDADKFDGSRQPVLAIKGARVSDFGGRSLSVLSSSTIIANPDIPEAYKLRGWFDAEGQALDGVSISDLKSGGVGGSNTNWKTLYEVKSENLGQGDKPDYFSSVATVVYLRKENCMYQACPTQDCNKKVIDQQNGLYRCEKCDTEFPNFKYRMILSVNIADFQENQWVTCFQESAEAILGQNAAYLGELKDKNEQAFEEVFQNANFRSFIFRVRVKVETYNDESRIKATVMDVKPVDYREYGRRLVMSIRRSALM
Sequence of Human RPA (P15927 whole entry partner): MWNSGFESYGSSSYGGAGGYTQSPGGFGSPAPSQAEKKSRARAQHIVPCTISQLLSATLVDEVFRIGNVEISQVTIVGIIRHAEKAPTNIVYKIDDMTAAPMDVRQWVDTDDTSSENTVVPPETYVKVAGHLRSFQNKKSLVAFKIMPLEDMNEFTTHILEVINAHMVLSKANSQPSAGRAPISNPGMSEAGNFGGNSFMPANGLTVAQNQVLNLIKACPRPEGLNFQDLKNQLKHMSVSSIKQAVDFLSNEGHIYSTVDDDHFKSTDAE
Sequence of Human RPA (P35244 whole entry partner): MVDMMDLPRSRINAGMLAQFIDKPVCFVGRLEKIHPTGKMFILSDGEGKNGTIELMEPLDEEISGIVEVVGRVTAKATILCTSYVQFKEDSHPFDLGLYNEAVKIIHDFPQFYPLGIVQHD

For the compound `CCOc1ccc2cc(C3CC(c4ccc(Br)cc4)=NN3C(=O)CCC(=O)O)c(Cl)nc2c1` (stereo not drawn) [TDRL-505], the “cytotoxic effect in A549 cells (in words)” value in the data set on A549 NSCLC cell line is on record as “A similar result”. In addition, in the data set on H460 NSCLC cells (75 μM, 48 hours), the “cell cycle distribution, asynchronous culture (in words)” value was “increase in the proportion of cells in G1-phase”. Also, the “cell cycle progression after release from nocodazole G2 arrest (in words)” value in the data set with H460 NSCLC cells (100 μM, 4, 8 and 12 hours) is listed as “did not enter S-phase even 12 hours post release”. Moreover, the concentration for half-maximal inhibition (IC50) with H460 NSCLC cell line [1] was 64 µM; in the data set with H460 NSCLC cell line [2], 30.8 ± 1.7 µM; on Human RPA it was 13 µM and 12.9 µM. For the same compound, the “cytotoxic activity in PBMCs (in words)” value in data set [3] was “minimal cytotoxic activity”. Besides, in the data set on H460 cells (FIG. 7B), the “tumor growth in individual mice vs vehicle (in words)” value is given as “significant reduction in tumor growth”. Also, the “tumor growth vs vehicle control (in words)” value in the data set on H460 cells (group mean, FIG. 7A) is “reduction in tumor growth”.
